These results are taken from patent US12448364B2, “2, 4-diaminopyrimidine derivative and application thereof” (Shanghai Zheye Biotechnology Co., Ltd., priority 2018, dated 2025).

Like-named read-outs stand apart in the source and are kept apart here.

A word on the IC50: it is the concentration that gives 50% inhibition.

The target of one test is ALK2 kinase (Homo sapiens (Human), UniProt Q04771). The test can be described thus: Inhibitory activity test of the compounds on ALK2 (Promega ALK2 Kinase Enzyme System, ADP-Glo). The format is biochemical. The conditions noted are these: ADP-Glo chemiluminescence, 65 μM ATP substrate mix; read-out: IC50 (nM) values of the inhibitory activities on ALK2. The protocol: 1. Inhibitory Activity Test of the Compounds on ALK2
ALK2 Kinase Enzyme System kit from Promega was used for the test. Reagents for kinase test was prepared first, the reagents comprising: (1)4×Kinase buffer 250 μL (containing 200 μM DTT); (2)5×Inhibitor mother liquor, i.e., the test compound was prepared into 10 mM mother liquor with DMSO, and the test compound was diluted into 5 mM (20 μL of 10 mM test compound mother liquor+20 μL of DMSO dissolved) with DMSO; (3)1×Kinase buffer (containing 1% DMSO) 200 μL; (4)1×Kinase buffer 40 μL; @Kinase solution 115 μL; (6)Substrate Mix (containing 65 μM ATP) 120 μL. The inhibitor working solution was then prepared, i.e., the test compound was prepared into 5 mM mother liquor with DMSO, 1 μL of 5 mM mother liquor was taken and was diluted into the concentration of 50000 nM by adding 99 μL 1×Kinase buffer; 20 μL of the solution of this concentration was taken, and 80 μL of 1×Kinase buffer (containing 1% DMSO) was added thereto to obtain the concentration of 10000 nM, 5 times dilution was carried out in this way, and a total of 6 concentration gradients were provided. 1 μL of the compound at each concentration was taken and added to a 384-well plate, and then 2 μL Kinase solution (160 mM Tris, 7.5; 80 mM MgCl2; 0.4 mg/ml BSA; 200 μM DTT; ALK2 kinase) was added to each well, and the plate was centrifuged at 1000 rpm for 20 seconds at room temperature, incubated for 30 minutes at 25° C.; then 2 μL of a mixture containing ATP and kinase substrate was added to each well, the plate was centrifuged at 1000 rpm for 20 seconds at room temperature, and incubated at 25° C. for 120 minutes. Then 5 μL of ADP-Glo™ reagent was added to each well, and the plate was incubated at 25° C. for 40 minutes; then 10 μL of Kinase Detection Reagent was added to each well, the plate was incubated at 25° C. for 30 minutes and then was tested; a microplate reader was used to record the chemiluminescence value, the curve was fitted with Origin 7.5, the IC50 (nM) value of the test substance on the ALK2 kinase activity was calculated.
(In general: In ADP-Glo the light output rises with the ADP produced.)

Another test has as its system hepcidin in HepG2 cells. The test can be described thus: Inhibition test of compounds on hepcidin expression in HepG2 cells (hepcidin ELISA). The format is cell-based, human. The conditions noted are these: 48 hours incubation, hepcidin protein in supernatant by ELISA, read-out: IC50 (nM) values of the inhibitory activities on hepcidin in HepG2 cells. The protocol:
2. Inhibition Test of Compounds on Hepcidin Expression in HepG2 Cells
HepG2 cells (ATCC HB-8065) in the exponential growth phase were digested with trypsin-EDTA, inoculated into 96-well plates at 5000 cells/well, and cultured in MEM (10% FBS) medium at 37° C. under 5% CO2 conditions for 24 hours, the test compound dissolved in DMSO and diluted in the medium and at a gradient concentration was added to each culture well. The preparation method of the test compound is: a compound mother liquor at a concentration of 10 mM was prepared, and then the compound was diluted in a gradient. The highest concentration of the compound for test was 10 μM, and a total of 8 gradients were obtained by 5-fold dilution. The diluted compound was added to a 96-well plate covered with cells, 50 μL per well. After the compound was added, the plate was placed in an incubator stored at 37° C. and 5% CO2, and incubated for another 48 hours. After the incubation was completed, the 96-well plate was centrifuged at 1000 rpm for 5 minutes at room temperature, the supernatant was taken, ELISA sample loading and detecting were completed within 30 minutes. Hepcidin ELISA kit (Human Hepcidin Quantikine ELISA Kit, R&D systems, Cat #DHP250) was used to quantitatively detect hepcidin protein. […] After washing and color development, the absorbance value was determined with a microplate reader at 450 nm, and the concentration of hepcidin protein in the test sample was calculated according to the quasi-curve of human hepcidin protein determination, and the curve was fitted with Origin 7.5 software, the IC50 (nM) value on the inhibition of producing hepcidin preotein of HepG2 cells by the test compound was calculated.
Background: An ELISA detects its analyte on a solid surface through an enzyme-linked reagent.

Chain of ALK2 kinase (Q04771 21-509): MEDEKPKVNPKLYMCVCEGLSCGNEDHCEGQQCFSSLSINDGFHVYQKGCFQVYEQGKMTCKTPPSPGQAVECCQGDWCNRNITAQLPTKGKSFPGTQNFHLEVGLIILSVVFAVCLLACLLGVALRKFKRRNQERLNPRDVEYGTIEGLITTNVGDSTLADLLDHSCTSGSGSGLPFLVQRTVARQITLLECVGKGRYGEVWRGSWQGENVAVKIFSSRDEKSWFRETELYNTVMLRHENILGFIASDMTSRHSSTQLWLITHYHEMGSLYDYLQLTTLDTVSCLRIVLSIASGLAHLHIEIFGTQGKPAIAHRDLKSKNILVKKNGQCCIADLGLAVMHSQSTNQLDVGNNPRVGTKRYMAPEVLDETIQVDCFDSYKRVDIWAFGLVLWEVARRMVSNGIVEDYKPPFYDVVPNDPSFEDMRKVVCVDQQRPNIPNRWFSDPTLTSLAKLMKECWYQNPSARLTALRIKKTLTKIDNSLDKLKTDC

`COc1cc(Nc2nccc(Nc3cccnc3-c3ccccn3)n2)ccc1C1CCOCC1` [Compound 1, N^4-(2,2′-bipyridin-3-yl)-N^2-(3-methoxy-4-(tetrahydro-2H-pyran-4-yl)phenyl)pyrimidine-2,4-diamine]: on ALK2 kinase, the IC50 lay in the range of 150 to 500 nM.

For `COc1cc(Nc2nccc(Nc3cccnc3-c3ccccn3)n2)ccc1C1CCN(C)CC1` [Compound 2, N^4-(2,2′-bipyridin-3-yl)-N^2-3-(methoxy-4-(1-methylpiperidin-4-yl)phenyl)pyrimidine-2,4-diamine], the results for the IC50 on ALK2 kinase and with hepcidin in HepG2 cells (Homo sapiens) were at most 150 nM and 14 nM, respectively. `COc1cc(Nc2ncc(OC)c(Nc3cccnc3-c3ccccn3)n2)ccc1C1CCOCC1` [Compound 4, N^4-(2,2′-bipyridin-3-yl)-5-methoxy-N^2-(3-methoxy-4-(tetrahydro-2H-pyran-4-yl)phenyl)pyrimidine-2,4-diamine]: the IC50 at ALK2 kinase lay within 150 to 500 nM. Consider `COc1cc(Nc2nccc(Nc3ccc(C)nc3-c3ccccn3)n2)ccc1C1CCN(C)CC1` [Compound 5, N^2-(3-methoxy-4-(1-methylpiperidin-4-yl)phenyl)-N^4-(6-methyl-2,2′-bipyridin-3-yl)pyrimidine-2,4-diamine], for which the IC50 at ALK2 kinase was at most 150 nM; in the test on hepcidin in HepG2 cells (Homo sapiens), 30 nM. `COc1cc(Nc2nccc(Nc3cccnc3-c3ccccn3)n2)cc(OC)c1OC` [Compound I*, reference compound]: the IC50 at ALK2 kinase is at least 500 nM; with hepcidin in HepG2 cells, 532 nM.
